From US20210221848A1, “POLYMYXIN DERIVATIVES AND THEIR USE IN COMBINATION THERAPY TOGETHER WITH DIFFERENT ANTIBIOTICS” (priority 2014, published 2021)
Read-outs that look alike come from different tables or passages of the source.

Tests used:
[1] = test system: E. coli strains with elevated MICs to Polymyxin B; experiment: MIC against strains with elevated MICs to Polymyxin B; type: cell-based, Escherichia coli; conditions: Table 6D; for MIC E. coli 058: strain 058, elevated MIC to Polymyxin B; for MIC E. coli 059: strain 059, elevated MIC to Polymyxin B; for MIC E. coli 060: strain 060, elevated MIC to Polymyxin B; for MIC E. coli 061: strain 061, elevated MIC to Polymyxin B
Protocol: (§1) The inoculum was prepared by making a direct suspension of isolated colonies (selected from an 18-24 hour Mueller-Hinton agar plate) adjusted to the 0.5 McFarland standard. […] The assays were performed in duplicate. […] In cases where the duplicate values varied by less than 2-fold, the lower of the two values is reported. If a variation of greater than 2-fold was observed, the assay was considered non-valid. Several of the compounds were subjected to multiple tests, and where this is the case, the MIC reflects the modal value obtained.
(§2) The Further Synthesis Examples were tested against a range of Gram negative bacteria, and tested for HK-2 cell toxicity. All the worked examples, including the Synthesis and Further Synthesis Examples, were also tested against a range of Gram negative bacteria that are resistant to Polymyxin B (i.e. those strains where Polymyxin B has an elevated MIC value).

[2] = test system: P. aeruginosa strains with elevated MICs to Polymyxin B; experiment: MIC against strains with elevated MICs to Polymyxin B; type: cell-based, Pseudomonas aeruginosa; conditions: Table 6D; for MIC P. aeruginosa 065: strain 065, elevated MIC to Polymyxin B; for MIC P. aeruginosa 066: strain 066, elevated MIC to Polymyxin B; for MIC P. aeruginosa 067: strain 067, elevated MIC to Polymyxin B
Protocol: as §1, §2

[3] = test system: A. baumanii strains with elevated MICs to Polymyxin B; experiment: MIC against strains with elevated MICs to Polymyxin B; type: cell-based, Acinetobacter baumannii; conditions: Table 6D; for MIC A. baumannii 053: strain 053, elevated MIC to Polymyxin B; for MIC A. baumannii 056: strain 056, elevated MIC to Polymyxin B; for MIC A. baumannii 068: strain 068, elevated MIC to Polymyxin B; for MIC A. baumannii 070: strain 070, elevated MIC to Polymyxin B
Protocol: as §1, §2

[4] = test system: K. pneumoniae strains with elevated MICs to Polymyxin B; experiment: as above; type: cell-based, Klebsiella pneumoniae; conditions: Table 6D; for MIC K. pneumoniae 062: strain 062, elevated MIC to Polymyxin B; for MIC K. pneumoniae 063: strain 063, elevated MIC to Polymyxin B; for MIC K. pneumoniae 064: strain 064, elevated MIC to Polymyxin B; for MIC K. pneumoniae 655: strain 655, elevated MIC to Polymyxin B
Protocol: as §1, §2

[5] = absence of a second agent, Table 6B

Substance	MIC E. coli 058 [1]	MIC, A. baumannii ATCC BAA-747 (A. baumannii; sole activity, Table 6C)	MIC, A. baumannii NCTC 13424 (A. baumannii; sole activity, Table 6C)	MIC, P. aeruginosa ATCC 27853 (P. aeruginosa; sole activity, Table 6C)	MIC, P. aeruginosa CCUG 59347 (P. aeruginosa; sole activity, Table 6C)	MIC P. aeruginosa 065 [2]	MIC, E. coli ATCC 25922 (E. coli; sole activity, Table 6C)	MIC E. coli 059 [1]	MIC E. coli 060 [1]	MIC E. coli 061 [1]	MIC A. baumannii 053 [3]	MIC A. baumannii 056 [3]	MIC A. baumannii 068 [3]	MIC A. baumannii 070 [3]	MIC K. pneumoniae 062 [4]	MIC K. pneumoniae 063 [4]	MIC K. pneumoniae 064 [4]	MIC K. pneumoniae 655 [4]	MIC P. aeruginosa 066 [2]	MIC, K. pneumoniae ATCC 4352 (K. pneumoniae; sole activity, Table 6C)	other results
Cis-5-(N- isobutylsulfamoyl) piperidine-3- carbonyl L-Thr-L- Dap-polymyxin B heptapeptide [Example D94]	16 micrograms/mL	0.06 micrograms/mL	0.06 micrograms/mL	0.5 micrograms/mL	1 micrograms/mL	32 micrograms/mL	0.03 micrograms/mL														
4-(isobutyl- piperidine)-3- carbonyl L-Thr-L- Dap-polymyxin B heptapeptide [Example D83]	4 micrograms/mL	0.06 micrograms/mL	0.125 micrograms/mL	0.25 micrograms/mL	0.5 micrograms/mL	2 micrograms/mL	0.125 micrograms/mL	8 micrograms/mL	2 micrograms/mL	8 micrograms/mL	>64 micrograms/mL	32 micrograms/mL	8 micrograms/mL	16 micrograms/mL	32 micrograms/mL	16 micrograms/mL	2 micrograms/mL	16 micrograms/mL	2 micrograms/mL	0.06 micrograms/mL	MIC P. aeruginosa 067 [2]: 32 micrograms/mL; MIC, E. coli NCTC 13441 (E. coli; sole activity, Table 6C): 0.06 micrograms/mL
(cis-5-octylpiperidine)- 3-carbonyl polymyxin B nonapeptide [Example D20]								4 micrograms/mL	16 micrograms/mL	32 micrograms/mL	>64 micrograms/mL	>64 micrograms/mL	32 micrograms/mL	64 micrograms/mL	>64 micrograms/mL	>64 micrograms/mL	>64 micrograms/mL	>64 micrograms/mL	64 micrograms/mL		MIC, A. baumannii ATCC BAA-747 (A. baumannii; [5]): >8 micrograms/mL; MIC, A. baumannii NCTC 13424 (A. baumannii; [5]): >8 micrograms/mL; MIC, P. aeruginosa ATCC 27853 (P. aeruginosa; [5]): 0.5 micrograms/mL; MIC, P. aeruginosa CCUG 59347 (P. aeruginosa; [5]): 1 micrograms/mL; MIC P. aeruginosa 067 [2]: >64 micrograms/mL; MIC, E. coli ATCC 25922 (E. coli; [5]): 4 micrograms/mL; MIC, E. coli NCTC 13441 (E. coli; [5]): 4 micrograms/mL; MIC, K. pneumoniae ATCC 4352 (K. pneumoniae; [5]): 8 micrograms/mL; MIC, K. pneumoniae ATCC BAA-2146 (K. pneumoniae; [5]): >8 micrograms/mL
(trans-5-(isobutyl- piperidine)-3- carbonyl L-Thr- D-Dap-polymyxin B heptapeptide [Example D87]	1 micrograms/mL	0.03 micrograms/mL	0.03 micrograms/mL	0.25 micrograms/mL	1 micrograms/mL	0.5 micrograms/mL	0.03 micrograms/mL	1 micrograms/mL	1 micrograms/mL	4 micrograms/mL	32 micrograms/mL	2 micrograms/mL	2 micrograms/mL	2 micrograms/mL	8 micrograms/mL	8 micrograms/mL	0.5 micrograms/mL	4 micrograms/mL	0.25 micrograms/mL	0.06 micrograms/mL	MIC P. aeruginosa 067 [2]: 64 micrograms/mL
(S)-3-amino-2- ((2- trifluoromethylben- zyl)amino)propa- noyl L-Thr-L- Dap-polymyxin B heptapeptide [Example D76]	4 micrograms/mL	0.06 micrograms/mL	0.25 micrograms/mL	0.25 micrograms/mL	0.25 micrograms/mL	2 micrograms/mL	0.125 micrograms/mL	6 micrograms/mL	2 micrograms/mL	8 micrograms/mL	64 micrograms/mL	16 micrograms/mL	8 micrograms/mL	16 micrograms/mL	64 micrograms/mL	16 micrograms/mL	2 micrograms/mL	16 micrograms/mL	2 micrograms/mL	0.06 micrograms/mL	MIC P. aeruginosa 067 [2]: 64 micrograms/mL; MIC, E. coli NCTC 13441 (E. coli; sole activity, Table 6C): 0.25 micrograms/mL; MIC, K. pneumoniae ATCC BAA-2146 (K. pneumoniae; sole activity, Table 6C): 0.125 micrograms/mL
1-(2- trifluoromethylben- zyl)piperazine- 2-carbonyl polymyxin E nonapeptide [Example D72]		0.125 micrograms/mL		0.5 micrograms/mL	1 micrograms/mL		0.25 micrograms/mL	16 micrograms/mL	8 micrograms/mL	16 micrograms/mL	>128 micrograms/mL	128 micrograms/mL	64 micrograms/mL	128 micrograms/mL	64 micrograms/mL	32 micrograms/mL		64 micrograms/mL		0.125 micrograms/mL	MIC, E. coli NCTC 13441 (E. coli; sole activity, Table 6C): 0.25 micrograms/mL; MIC, K. pneumoniae ATCC BAA-2146 (K. pneumoniae; sole activity, Table 6C): 0.25 micrograms/mL
(cis-5- cyclohexylpiperidine)- 3-carbonyl L-Thr-L- Dap-polymyxin B heptapeptide [Example D44]	2 micrograms/mL					1 micrograms/mL											2 micrograms/mL	32 micrograms/mL	0.5 micrograms/mL		MIC, A. baumannii ATCC BAA-747 (A. baumannii; [5]): 0.25 micrograms/mL; MIC, P. aeruginosa ATCC 27853 (P. aeruginosa; [5]): 0.25 micrograms/mL; MIC, P. aeruginosa CCUG 59347 (P. aeruginosa; [5]): 0.5 micrograms/mL; MIC P. aeruginosa 067 [2]: 64 micrograms/mL; MIC, E. coli ATCC 25922 (E. coli; [5]): 1 micrograms/mL; MIC, E. coli NCTC 13441 (E. coli; [5]): 0.5 micrograms/mL; MIC, K. pneumoniae ATCC BAA-2146 (K. pneumoniae; [5]): 0.5 micrograms/mL
(S)-4-amino-2- (((S)-6- methyloctanoyl)ox- y)butanoyl polymyxin B nonapeptide [Example D93]	8 micrograms/mL	0.25 micrograms/mL	0.5 micrograms/mL	0.25 micrograms/mL	1 micrograms/mL	2 micrograms/mL	0.25 micrograms/mL													0.25 micrograms/mL	
(S)-1-((6-oxo-1- phenyl-1,6- dihydropyridin-3- yl)methyl)piperazine- 2-carbonyl Polymyxin B nonapeptide [Example D60]		4 micrograms/mL	2 micrograms/mL	1 micrograms/mL	2 micrograms/mL		0.25 micrograms/mL													0.25 micrograms/mL	MIC, E. coli NCTC 13441 (E. coli; sole activity, Table 6C): 0.5 micrograms/mL; MIC, K. pneumoniae ATCC BAA-2146 (K. pneumoniae; sole activity, Table 6C): 0.5 micrograms/mL
